Consider 14 compounds from patent US11926625B2, “HPK1 antagonists and uses thereof” (Nimbus Saturn, Inc., priority 2021, dated 2024).

Structures are written as SMILES.

T1 sequence (Q92918 whole entry): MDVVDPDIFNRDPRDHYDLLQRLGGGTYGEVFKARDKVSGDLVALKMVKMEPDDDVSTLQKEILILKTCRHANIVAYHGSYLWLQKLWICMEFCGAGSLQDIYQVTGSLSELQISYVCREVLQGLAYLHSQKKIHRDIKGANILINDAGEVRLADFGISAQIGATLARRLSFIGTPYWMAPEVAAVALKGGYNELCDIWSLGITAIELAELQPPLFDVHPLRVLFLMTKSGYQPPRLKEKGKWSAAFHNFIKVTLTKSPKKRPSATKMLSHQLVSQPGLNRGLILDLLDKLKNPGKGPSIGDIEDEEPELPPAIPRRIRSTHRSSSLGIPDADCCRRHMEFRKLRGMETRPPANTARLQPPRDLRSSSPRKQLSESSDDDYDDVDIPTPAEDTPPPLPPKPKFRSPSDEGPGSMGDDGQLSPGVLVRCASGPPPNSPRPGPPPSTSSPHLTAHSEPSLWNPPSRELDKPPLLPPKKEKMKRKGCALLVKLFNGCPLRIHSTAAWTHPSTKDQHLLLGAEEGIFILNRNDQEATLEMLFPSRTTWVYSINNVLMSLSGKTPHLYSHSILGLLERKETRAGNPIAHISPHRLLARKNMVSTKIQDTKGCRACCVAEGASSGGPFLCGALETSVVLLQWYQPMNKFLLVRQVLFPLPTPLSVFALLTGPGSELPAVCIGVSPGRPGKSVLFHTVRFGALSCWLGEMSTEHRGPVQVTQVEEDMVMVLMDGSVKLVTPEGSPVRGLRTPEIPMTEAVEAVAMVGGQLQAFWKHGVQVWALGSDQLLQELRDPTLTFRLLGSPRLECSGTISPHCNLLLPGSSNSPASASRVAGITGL

The test has as its target T1, HPK1 (Homo sapiens, UniProt Q92918).
T1 construct: purchased Invitrogen
Put plainly: HPK1 biochemical enzyme assay (microfluidic mobility shift, Caliper). The following applies: 1.5 nM HPK1 (Invitrogen), 1 mM ATP, 30 min preincubation, 60 min at RT, top concentration 3 μM; read-out: HPK1 1000UMATP caliper IC50. The procedure: Example 20. HPK1 Biochemical Enzyme Assay
HPK1 biochemical enzyme assay: HPK1 enzyme inhibition was measured using a microfluidic mobility shift assay. Reactions were performed in a 384-well plate, containing 1.5 nM HPK1 (Invitrogen), in assay buffer (Cama Biosciences; pH 7.4). Test compounds were titrated in ten point curves (top final assay concentration 3 μM), and preincubated with enzyme/substrate mix for 30 min prior to initiation of the reaction by addition of ATP (1 mM final concentration) and substrate (1 μM final concentration; Carna Biosciences) diluted in assay buffer supplemented by MgCl2 (final assay concentration of 5 mM). Following 60 min incubation at RT, the reaction was terminated by addition of 60 μl/well termination buffer (Carna Biosciences) and signal determination using a Caliper EZ Reader (Perkin Elmer, UK).
What is called IC50 is the point on the concentration scale where inhibition reaches its midpoint. Regarding `Cn1cnc(-c2ccccc2)c1-c1ccc(Nc2ccc(N3CCNCC3)cn2)c2c1CNC2=O` [Compound I-79, 4-(1-methyl-4-phenyl-1H-imidazol-5-yl)-7-((5-(piperazin-1-yl)pyridin-2-yl)amino) isoindolin-1-one], the concentration for half-maximal inhibition (IC50) was < 1 µM.
Consider `CNC1CCN(c2ccc(Nc3ccc(-c4ccncc4)c4c3C(=O)NC4)nc2)CC1` [Compound I-53, 7-[[5-[4-(methylamino)-1-piperidyl]-2-pyridyl]amino]-4-(4-pyridyl) isoindolin-1-one], for which the IC50 was < 1 µM.
Then `CN1CCN(c2ccc(Nc3ccc(-c4ccncc4N4CC5CCC(C4)O5)c4c3C(=O)NC4)nc2)CC1` [Compound I-74], with 1 to 5 µM; and `CN1CCN(c2ccc(Nc3ccc(-c4ccccn4)c4c3C(=O)NC4)nc2)CC1` [Compound I-31, 7-[[5-(4-methylpiperazin-1-yl)-2-pyridyl]amino]-4-(2-pyridyl) isoindolin-1-one], with < 1 µM.
For the compound `CN1CCN(c2ccc(Nc3ccc(-c4ccncn4)c4c3C(=O)NC4)nc2)CC1` [Compound I-45, 7-[[5-(4-methylpiperazin-1-yl)-2-pyridyl]amino]-4-pyrimidin-4-yl-isoindolin-1-one], the IC50 is < 1 µM.
Turning to `CN1CCN(c2ccc(Nc3cnc(-c4ccnc(N(C)C)c4)c4c3C(=O)NC4)nc2)CC1` [Compound I-58, 4-(2-(dimethylamino)pyridin-4-yl)-7-((5-(4-methylpiperazin-1-yl)pyridin-2-yl)amino)-2,3-dihydro-1H-pyrrolo[3,4-c]pyridin-1-one], the IC50 lay within 1 to 5 µM.
With `CN1CCN(c2ccc(Nc3ccc(-c4ccnc(C5CCOCC5)c4)c4c3C(=O)NC4)nc2)CC1` [Compound I-44, 7-[[5-(4-methylpiperazin-1-yl)-2-pyridyl]amino]-4-(2-tetrahydropyran-4-yl-4-pyridyl) isoindolin-1-one], the IC50 was 1 to 5 µM.
Then `COc1cccc(-c2ncc(Nc3ccc(N4CCNCC4)cn3)c3c2CNC3=O)c1OC` [Compound I-20, 4-(2,3-dimethoxyphenyl)-7-[(5-piperazin-1-yl-2-pyridyl)amino]-2,3-dihydropyrrolo [3,4-c]pyridin-1-one], with 1 to 5 µM; and `COc1cccc(-c2ncc(Nc3ccc(N4CCN(C)CC4)cn3)c3c2CNC3=O)c1OC` [Compound I-19, 4-(2,3-dimethoxyphenyl)-7-[[5-(4-methylpiperazin-1-yl)-2-pyridyl]amino]-2,3-dihydropyrrolo [3,4-c]pyridin-1-one], with 1 to 5 µM.
For `CN1CCN(c2ccc(Nc3ccc(-c4ccnc(-c5c(F)cccc5F)c4)c4c3C(=O)NC4)nc2)CC1` [Compound I-40, 4-[2-(2,6-difluorophenyl)-4-pyridyl]-7-[[5-(4-methylpiperazin-1-yl)-2-pyridyl]amino] isoindolin-1-one] the value was 1 to 5 µM; for `CN1CCN(c2ccc(Nc3ccc(-c4ccnc(N5CC6CCC(C5)O6)n4)c4c3C(=O)NC4)nc2)CC1` [Compound I-82, 4-(2-(8-oxa-3-azabicyclo [3.2.1]octan-3-yl)pyrimidin-4-yl)-7-((5-(4-methylpiperazin-1-yl)pyridin-2-yl)amino) isoindolin-1-one], 1 to 5 µM.
Then `CCN1CCN(Cc2ccc(NC(=O)c3ccc(-c4ncc(Nc5ccc(N6CCN(C)CC6)cn5)c5c4CNC5=O)cc3)cc2C(F)(F)F)CC1` [Compound I-24], with < 1 µM.
As for `CCc1cnc(N)nc1-c1ccc(Nc2ccc(N3CCN(C)CC3)cn2)c2c1CNC2=O` [Compound I-86, 4-(2-amino-5-ethylpyrimidin-4-yl)-7-((5-(4-methylpiperazin-1-yl)pyridin-2-yl)amino) isoindolin-1-one], the IC50 lay within 1 to 5 µM.
As to `CN1CCN(c2ccc(Nc3ccc(-c4ccnc(C(C)(C)C#N)c4)c4c3C(=O)NC4)nc2)CC1` [Compound I-35, 2-methyl-2-[4-[7-[[5-(4-methylpiperazin-1-yl)-2-pyridyl]amino]-1-oxo-isoindolin-4-yl]-2-pyridyl] propanenitrile], the IC50 was < 1 µM.
